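Briefly, cells in 96-well plates were exposed to five compound concentrations for 48 h, and endpoints were estimated by linear interpolation. The concentration for 50% growth inhibition is given as GI50. TGI marks complete inhibition of growth.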
Experiments:
Experiment in all cases: NCI tumour cell line growth inhibition, 48 h
786-0 renal = test system: 786-0 renal
A498 renal = test system: A498 renal
A549 NSCLC = test system: A549 NSCLC
ACHN renal = test system: ACHN renal
BT-549 breast = test system: BT-549 breast
CAKI-1 renal = test system: CAKI-1 renal
CCRF-CEM leukemia = test system: CCRF-CEM leukemia
COLO 205 colon = test system: COLO 205 colon
DU-145 prostate = test system: DU-145 prostate
EKVX NSCLC = test system: EKVX NSCLC
HCC-2998 colon = test system: HCC-2998 colon
HCT-116 colon = test system: HCT-116 colon
HCT-15 colon = test system: HCT-15 colon
HL-60(TB) leukemia = test system: HL-60(TB) leukemia
HOP-62 NSCLC = test system: HOP-62 NSCLC
HOP-92 NSCLC = test system: HOP-92 NSCLC
HS 578T breast = test system: HS 578T breast
HT29 colon = test system: HT29 colon
IGROV1 ovarian = test system: IGROV1 ovarian
K-562 leukemia = test system: K-562 leukemia
KM12 colon = test system: KM12 colon
LOX IMVI melanoma = test system: LOX IMVI melanoma
M14 melanoma = test system: M14 melanoma
MALME-3M melanoma = test system: MALME-3M melanoma
MCF7 breast = test system: MCF7 breast
MDA-MB-231 breast = test system: MDA-MB-231 breast
MDA-MB-435 = test system: MDA-MB-435
MDA-MB-468 breast = test system: MDA-MB-468 breast
MOLT-4 leukemia = test system: MOLT-4 leukemia
NCI-H226 lung = test system: NCI-H226 lung
NCI-H23 lung = test system: NCI-H23 lung
NCI-H460 lung = test system: NCI-H460 lung
NCI-H522 lung = test system: NCI-H522 lung
NCI/ADR-RES ovarian = test system: NCI/ADR-RES ovarian
OVCAR-3 ovarian = test system: OVCAR-3 ovarian
OVCAR-4 ovarian = test system: OVCAR-4 ovarian
OVCAR-5 ovarian = test system: OVCAR-5 ovarian
OVCAR-8 ovarian = test system: OVCAR-8 ovarian
PC-3 prostate = test system: PC-3 prostate
RPMI-8226 leukemia = test system: RPMI-8226 leukemia
RXF 393 renal = test system: RXF 393 renal
SF-268 CNS = test system: SF-268 CNS
SF-295 CNS = test system: SF-295 CNS
SF-539 CNS = test system: SF-539 CNS
SK-MEL-2 melanoma = test system: SK-MEL-2 melanoma
SK-MEL-28 melanoma = test system: SK-MEL-28 melanoma
SK-MEL-5 melanoma = test system: SK-MEL-5 melanoma
SK-OV-3 ovarian = test system: SK-OV-3 ovarian
SN12C renal = test system: SN12C renal
SNB-19 CNS = test system: SNB-19 CNS
SNB-75 CNS = test system: SNB-75 CNS
SR leukemia = test system: SR leukemia
SW-620 colon = test system: SW-620 colon
T-47D breast = test system: T-47D breast
TK-10 renal = test system: TK-10 renal
U251 CNS = test system: U251 CNS
UACC-257 melanoma = test system: UACC-257 melanoma
UACC-62 melanoma = test system: UACC-62 melanoma
UO-31 renal = test system: UO-31 renal

SMILES: O=C(CNc1nc(-c2ccccc2)cs1)Nc1ccc([N+](=O)[O-])cc1
- GI50 (786-0 renal): 4.1 µM
- TGI (786-0 renal): 14.1 µM
- GI50 (A498 renal): 16.9 µM
- TGI (A498 renal): 32.3 µM
- GI50 (A549 NSCLC): 9.71 µM
- TGI (A549 NSCLC): 24.4 µM
- GI50 (ACHN renal): 2390 nM
- TGI (ACHN renal): 6.98 µM
- GI50 (BT-549 breast): 2350 nM
- TGI (BT-549 breast): 10.1 µM
- GI50 (CAKI-1 renal): 5.26 µM
- TGI (CAKI-1 renal): 18.3 µM
- GI50 (CCRF-CEM leukemia): 2710 nM
- TGI (CCRF-CEM leukemia): 13.4 µM
- GI50 (COLO 205 colon): 4.59 µM
- TGI (COLO 205 colon): 15.9 µM
- GI50 (DU-145 prostate): 10.9 µM
- TGI (DU-145 prostate): 25.4 µM
- GI50 (EKVX NSCLC): 3.8 µM
- TGI (EKVX NSCLC): 14.6 µM
- GI50 (HCC-2998 colon): 3.5 µM
- TGI (HCC-2998 colon): 12.9 µM
- GI50 (HCT-116 colon): 3.22 µM
- TGI (HCT-116 colon): 14.2 µM
- GI50 (HCT-15 colon): 3.47 µM
- TGI (HCT-15 colon): 13.1 µM
- GI50 (HL-60(TB) leukemia): 2970 nM
- TGI (HL-60(TB) leukemia): 10.6 µM
- GI50 (HOP-62 NSCLC): 14.4 µM
- TGI (HOP-62 NSCLC): 35 µM
- GI50 (HOP-92 NSCLC): 6.65 µM
- TGI (HOP-92 NSCLC): 25.1 µM
- GI50 (HS 578T breast): 10.2 µM
- TGI (HS 578T breast): > 100 µM
- GI50 (HT29 colon): 3.73 µM
- TGI (HT29 colon): 15.8 µM
- GI50 (IGROV1 ovarian): 3.84 µM
- TGI (IGROV1 ovarian): 16 µM
- GI50 (K-562 leukemia): 3.26 µM
- TGI (K-562 leukemia): > 100 µM
- GI50 (KM12 colon): 8.27 µM
- TGI (KM12 colon): 20.7 µM
- GI50 (LOX IMVI melanoma): 2200 nM
- TGI (LOX IMVI melanoma): 11.1 µM
- GI50 (M14 melanoma): 5.07 µM
- TGI (M14 melanoma): 19.7 µM
- GI50 (MALME-3M melanoma): 2290 nM
- TGI (MALME-3M melanoma): 6.21 µM
- GI50 (MCF7 breast): 2900 nM
- TGI (MCF7 breast): 12.1 µM
- GI50 (MDA-MB-231 breast): 3.07 µM
- TGI (MDA-MB-231 breast): 12.5 µM
- GI50 (MDA-MB-435): 6.79 µM
- TGI (MDA-MB-435): 19.2 µM
- GI50 (MDA-MB-468 breast): 1550 nM
- TGI (MDA-MB-468 breast): 3.16 µM
- GI50 (MOLT-4 leukemia): 3.66 µM
- TGI (MOLT-4 leukemia): 23 µM
- GI50 (NCI-H226 lung): 12.5 µM
- TGI (NCI-H226 lung): 28.3 µM
- GI50 (NCI-H23 lung): 3.32 µM
- TGI (NCI-H23 lung): 13.7 µM
- GI50 (NCI-H460 lung): 10.2 µM
- TGI (NCI-H460 lung): 23.8 µM
- GI50 (NCI-H522 lung): 1900 nM
- TGI (NCI-H522 lung): 3.92 µM
- GI50 (NCI/ADR-RES ovarian): 3.77 µM
- TGI (NCI/ADR-RES ovarian): 20.4 µM
- GI50 (OVCAR-3 ovarian): 3.65 µM
- TGI (OVCAR-3 ovarian): 13.3 µM
- GI50 (OVCAR-4 ovarian): 3.52 µM
- TGI (OVCAR-4 ovarian): 12.8 µM
- GI50 (OVCAR-5 ovarian): 7.22 µM
- TGI (OVCAR-5 ovarian): 20.1 µM
- GI50 (OVCAR-8 ovarian): 11.1 µM
- TGI (OVCAR-8 ovarian): 28.2 µM
- GI50 (PC-3 prostate): 4.75 µM
- TGI (PC-3 prostate): 23.2 µM
- GI50 (RPMI-8226 leukemia): 3.25 µM
- TGI (RPMI-8226 leukemia): 19.8 µM
- GI50 (RXF 393 renal): 2770 nM
- GI50 (SF-268 CNS): 4.82 µM
- TGI (SF-268 CNS): 29.5 µM
- GI50 (SF-295 CNS): 8.63 µM
- TGI (SF-295 CNS): 21.6 µM
- GI50 (SF-539 CNS): 3.19 µM
- TGI (SF-539 CNS): 10.2 µM
- GI50 (SK-MEL-2 melanoma): 14.2 µM
- TGI (SK-MEL-2 melanoma): 30.5 µM
- GI50 (SK-MEL-28 melanoma): 10.3 µM
- TGI (SK-MEL-28 melanoma): 21.9 µM
- GI50 (SK-MEL-5 melanoma): 5.82 µM
- TGI (SK-MEL-5 melanoma): 18.6 µM
- GI50 (SK-OV-3 ovarian): 16.4 µM
- TGI (SK-OV-3 ovarian): 40.1 µM
- GI50 (SN12C renal): 3.37 µM
- TGI (SN12C renal): 13.6 µM
- GI50 (SNB-19 CNS): 10.7 µM
- TGI (SNB-19 CNS): 22.5 µM
- GI50 (SNB-75 CNS): 3.16 µM
- TGI (SNB-75 CNS): 15.5 µM
- GI50 (SR leukemia): 6.62 µM
- TGI (SR leukemia): 41.3 µM
- GI50 (SW-620 colon): 5.01 µM
- TGI (SW-620 colon): 18 µM
- GI50 (T-47D breast): 4.23 µM
- TGI (T-47D breast): 21.3 µM
- GI50 (TK-10 renal): 11.1 µM
- TGI (TK-10 renal): 24.2 µM
- GI50 (U251 CNS): 2850 nM
- TGI (U251 CNS): 11.1 µM
- GI50 (UACC-257 melanoma): 8.41 µM
- TGI (UACC-257 melanoma): 21.8 µM
- GI50 (UACC-62 melanoma): 4.41 µM
- TGI (UACC-62 melanoma): 17 µM
- GI50 (UO-31 renal): 4.58 µM
- TGI (UO-31 renal): 18.1 µM

Reference: PubChem BioAssay (NCI)
